# Source: US9169268B2, “Use of 7-alkoxy fangchinoline compounds in preventing, alleviating and/or treating depression” (Peking University, priority 2012, dated 2015)
# Experiments:
# [1] = system: chronic unpredictable stress (CUS) model in rats; assay: Elevated plus-maze (EPM) anxiety test in CUS model in rats; format: in vivo
# Experimental: (§1) The chronic unpredictable stress model is usually used as a depression model. The experimental method is as follows. Stimulation includes forced swimming (10° C., 6 min), tail clamping (1 cm from the tail tip, 1 min), water deprivation (24 h), fasting (24 h), isolated housing (24 h), tail suspension (1 h), immobility (2 h), high-speed horizontal oscillation (120 times/min, 1 h), foot shock for 45 minutes (mean 1 mA, time course 1 s, once/min). These stressors were randomly scheduled over a one-week period and repeated throughout the 23-day experiment. The non-stress control group was housed under normal conditions. Time: between 9:00 a.m. and 2:00 p.m. Since Day 15, the animals in each group were daily intragastrically administered with the subject medicament and double distilled water based on body weight (blank group and CUS model group) respectively, 60 minutes before the stress. […] Behavior and sleep electroencephalogram analyses were carried out on Day 22-23 of the stress. On Day 21, 60 minutes after the final administration, a sucrose solution intake test was carried out and sleep electroencephalogram was recorded simultaneously. On Day 22, EPM and forced swimming tests were carried out.
# [2] = system: chronic unpredictable stress (CUS) model in rats; assay: Autonomous movement in CUS model in rats; format: in vivo; settings: 7 days
# Experimental: as §1
# [3] = Serum AST and ALT in mice after 14 days of intragastric administration; format: in vivo; settings: mouse, in vivo, 60 mg/kg/day
# Experimental: Blood was collected from epicanthal, stood at room temperature for about 2 hours, and centrifuged for 12 minutes at 3000 r/min after coagulation. The serum was removed and centrifuged again. Alanine transaminase (ALT) and aspartate transaminase (AST) levels were determined
# [4] = system: GSK-3β phosphorylation level; assay: GSK-3β phosphorylation level in mouse brain regions (Western blot); format: in vivo; settings: mice
# Experimental: ICR mice were intragastrically administered of subject medicaments and vehicle. One hour later, brains of those treated mice were obtained after decapitation. Prefrontal lobe cortex, hipocampus, corpus striatum and hypothalamus were isolated and collected respectively. Then protein electrophoresis (Western blot) was carried out with each sample.
# [5] = system: chronic unpredictable stress (CUS) model in rats; assay: Sleep electroencephalogram in CUS depression model in rats; format: in vivo
# Experimental: The chronic unpredictable stress model is usually used as a depression model. The experimental method is as follows. Stimulation includes forced swimming (10° C., 6 min), tail clamping (1 cm from the tail tip, 1 min), water deprivation (24 h), fasting (24 h), isolated housing (24 h), tail suspension (1 h), immobility (2 h), high-speed horizontal oscillation (120 times/min, 1 h), foot shock for 45 minutes (mean 1 mA, time course 1 s, once/min). These stressors were randomly scheduled over a one-week period and repeated throughout the 23-day experiment. The non-stress control group was housed under normal conditions. Time: between 9:00 a.m. and 2:00 p.m. Since Day 15, the animals in each group were daily intragastrically administered with the subject medicament and double distilled water based on body weight (blank group and CUS model group) respectively, 60 minutes before the stress. Imipramine (intraperitoneally, IP) was adopted as a positive control. Behavior and sleep electroencephalogram analyses were carried out on Day 22-23 of the stress. On Day 21, 60 minutes after the final administration, a sucrose solution intake test was carried out and sleep electroencephalogram was recorded simultaneously. On Day 22, EPM and forced swimming tests were carried out.
# Result 3: Sleep disturbance is one of the most common symptoms of neuropsychiatry. From a view of therapeutics, sleep disturbance is one of the most distressful events in patients suffered from nervous diseases and mental illness, especially in depression, and also one of major adverse events that may exacerbate the conditions of nervous disease and mental illness and impede the recovery in patients. For example, patients who are suffering from depression associated with insomnia may have an apparently higher incidence of a suicidal behavior, as compared with a non-insomnia group. Sleep disturbance in nervous and mental diseases can be simulated by using a CUS model in rats. […] Therefore, YH-200 could be useful for treating and ameliorating sleep disturbance in a patient suffering from depression (see, Table 4).
# [6] = system: forced swimming model in mice; assay: Forced swimming model in mice; format: in vivo
# Experimental: A desperate behavior status of human beings may be simulated by an immobility status in a forced swimming model in mice. The mice were put into a cylindrical glass jar (height 20 cm, diameter 10 cm) with a water depth of 15 cm and water temperature of 25±1° C. The mice were allowed to pre-swim for 15 minutes before the experiment, and then were taken out, wiped dry at a warm place, and sent back into cages. In 24 hours, the mice received an intragastric administration; and 60 minutes after the administration, the mice were put into the above-mentioned environment. The accumulative immobility time of the mice in the jar during the 5-minute period of time after six minutes of swimming was measured. A decrease in immobility time was taken as evaluation index.
# GSK-3β = GSK-3β (Homo sapiens, UniProt P49841); assay: GSK-3β activity assay (Z′-LYTE); format: biochemical; settings: n = 3; read-out: Mean EC50 in the inhibition of GSK-3β activity
# Sequence of GSK-3β (P49841 whole entry): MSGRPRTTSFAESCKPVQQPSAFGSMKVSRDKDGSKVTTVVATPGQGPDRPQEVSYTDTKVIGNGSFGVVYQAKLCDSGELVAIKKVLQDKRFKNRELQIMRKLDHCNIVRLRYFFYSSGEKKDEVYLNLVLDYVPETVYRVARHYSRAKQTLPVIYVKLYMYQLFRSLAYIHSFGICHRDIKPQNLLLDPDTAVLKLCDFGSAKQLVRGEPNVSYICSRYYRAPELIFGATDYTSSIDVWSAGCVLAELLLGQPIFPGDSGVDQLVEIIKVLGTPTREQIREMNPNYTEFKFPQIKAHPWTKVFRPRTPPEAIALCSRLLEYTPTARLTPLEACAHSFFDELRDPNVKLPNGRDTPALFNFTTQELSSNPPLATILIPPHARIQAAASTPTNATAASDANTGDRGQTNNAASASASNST
# Experimental: The GSK-3β phosphorylation level was determined by using a Z′-LYTE assay (Life Technologies). The assay was performed in a 384-well plate. The wells of the testing plate were divided into blank control wells (without the enzyme), enzyme control wells (without the testing substance), and testing wells (with the enzyme and the testing substance at various concentrations). The inhibition rate of the testing substance is expressed as: inhibition %=(E−S)/(E−B)×100, wherein E is the average emission ratio of enzyme control wells; B is the average emission ratio of blank control wells; S is the emission ratio of the testing sample wells. The median effective concentration of each compound (EC50 μM) was calculated by using the resultant inhibition rate of each sample at various concentrations.
# [7] = system: chronic unpredictable stress (CUS) model in rats; assay: Sucrose solution preference in CUS model in rats; format: in vivo; settings: 7 days
# Experimental: as §1
# [8] = Day 0 (baseline, before dosing)
smiles,measurement,setting,value
"CCOc1c(OC)cc2c3c1Oc1cc4c(cc1OC)CCN(C)C4Cc1ccc(cc1)Oc1cc(ccc1OC)CC3N(C)CC2 (stereo not shown) [Compound 3, 7-ethoxy fangchinoline]",Percentage of entries into open arms relative to total entries into arms,[1]; 7.5 mg/kg intragastric daily,"57.2 ± 1.8^##,$$ %"
same,Percentage of residence time in open arms,[1]; 7.5 mg/kg intragastric daily,"69.1 ± 2.4^##,$$ %"
same,Percentage of entries into open arms relative to total entries into arms,[1]; 15 mg/kg intragastric daily,"59.7 ± 2.2^##,$$ %"
same,Percentage of residence time in open arms,[1]; 15 mg/kg intragastric daily,"72.3 ± 3.6^##,$$ %"
same,Percentage of entries into open arms relative to total entries into arms,[1]; 30 mg/kg intragastric daily,"60.2 ± 2.0^##,$$ %"
same,Percentage of residence time in open arms,[1]; 30 mg/kg intragastric daily,"71.8 ± 3.2^##,$$ %"
same,Autonomous movement Distance,[2]; 7.5 mg/kg intragastric daily,"13612.65 ± 792.22^##,$$ mm"
same,Autonomous movement Speed,[2]; 7.5 mg/kg intragastric daily,"45.38 ± 2.64^##,$$ mm/second"
same,Autonomous movement Distance,[2]; 15 mg/kg intragastric daily,"14409.83 ± 664.54^##,$$ mm"
same,Autonomous movement Speed,[2]; 15 mg/kg intragastric daily,"48.03 ± 4.02^##,$$ mm/second"
same,Autonomous movement Distance,[2]; 30 mg/kg intragastric daily,"14636.14 ± 812.31^##,$$ mm"
same,Autonomous movement Speed,[2]; 30 mg/kg intragastric daily,"48.78 ± 5.36^##,$$ mm/second"
same,ALT,[3],82.1 ± 16.4 U/L
same,AST,[3],102.3 ± 14.5 U/L
same,AST/ALT,[3],1.25 ± 0.18
same,melting point,,109.5 to 111 °C
same,p-GSK-3β level,"[4]; 30 mg/kg intragastric, 1 h, hypothalamus, versus blank control",evidently increased
same,influence on phosphorylated GSK-3β (p-GSK-3β) and total-GSK-3β,"[4]; 30 mg/kg intragastric, 1 h, prefrontal lobe cortex, hipocampus and corpus striatum",no evident influence
same,total GSK-3β level,"[4]; 60 mg/kg intragastric, 1 h, four brain sections",no influence
same,p-GSK-3β level,"[4]; 60 mg/kg intragastric, 1 h, prefrontal lobe cortex, hipocampus, corpus striatum and hypothalamus",significantly increased
same,enhancement of GSK-3β phosphorylation level with pMPPI given intraperitoneally 15 minutes before,"[4]; FIG. 3, prefrontal lobe cortex, hipocampus, corpus striatum and hypothalamus, n=6",could evidently inhibit
same,enhancement of GSK-3β phosphorylation level with 5-HT2A receptor agonist DOI,"[4]; FIG. 5, prefrontal lobe cortex, hipocampus, corpus striatum and hypothalamus, n=6",inhibited
same,effect on the sleep disturbance,[5]; 30 mg/kg p.o.,evident amelioration effect
same,Deep sleep (SWS) Time,[5]; [8],39.31 ± 10.22 min
same,NREM sleep Time,[5]; [8],174.44 ± 8.35 min
same,Rapid eye movement (REM) sleep Time,[5]; [8],37.95 ± 6.28 min
same,Total sleep Time,[5]; [8],212.40 ± 12.65 min
same,Deep sleep (SWS) Time,"[5]; Day 21, 30 mg/kg p.o.",48.18 ± 13.77 min
same,NREM sleep Time,"[5]; Day 21, 30 mg/kg p.o.",165.27 ± 7.97 min
same,Rapid eye movement (REM) sleep Time,"[5]; Day 21, 30 mg/kg p.o.",34.06 ± 1.75 min
same,Total sleep Time,"[5]; Day 21, 30 mg/kg p.o.",199.33 ± 9.11 min
same,anti-depression effect with 5-HT1A receptor antagonist pMPPI,"[6]; FIG. 2, n=12-15",could be inhibited
same,reduction of immobility time and extension of immobility latency period with 5-HT2A receptor agonist DOI,"[6]; FIG. 4, n=12-15",could be inhibited
same,EC50,GSK-3β,860 nM
same,Sucrose solution preference,[7]; 7.5 mg/kg intragastric daily,"82.3 ± 3.3^##,$$ %"
same,Sucrose solution preference,[7]; 15 mg/kg intragastric daily,"93.6 ± 4.6^##,$$ %"
same,Sucrose solution preference,[7]; 30 mg/kg intragastric daily,"98.1 ± 3.7^##,$$ %"
